From article PMC7261199 (Chemistry (Weinheim an der Bergstrasse, Germany), 2020)

Target: prostate-specific membrane antigen (PSMA) (Homo sapiens, UniProt Q04609)
Experiment: radioligand displacement of […]mTc-MIP-1427 in PSMA-expressing PC-3 PiP cells
Type: cell-based

Chain of prostate-specific membrane antigen (PSMA) (Q04609 whole entry): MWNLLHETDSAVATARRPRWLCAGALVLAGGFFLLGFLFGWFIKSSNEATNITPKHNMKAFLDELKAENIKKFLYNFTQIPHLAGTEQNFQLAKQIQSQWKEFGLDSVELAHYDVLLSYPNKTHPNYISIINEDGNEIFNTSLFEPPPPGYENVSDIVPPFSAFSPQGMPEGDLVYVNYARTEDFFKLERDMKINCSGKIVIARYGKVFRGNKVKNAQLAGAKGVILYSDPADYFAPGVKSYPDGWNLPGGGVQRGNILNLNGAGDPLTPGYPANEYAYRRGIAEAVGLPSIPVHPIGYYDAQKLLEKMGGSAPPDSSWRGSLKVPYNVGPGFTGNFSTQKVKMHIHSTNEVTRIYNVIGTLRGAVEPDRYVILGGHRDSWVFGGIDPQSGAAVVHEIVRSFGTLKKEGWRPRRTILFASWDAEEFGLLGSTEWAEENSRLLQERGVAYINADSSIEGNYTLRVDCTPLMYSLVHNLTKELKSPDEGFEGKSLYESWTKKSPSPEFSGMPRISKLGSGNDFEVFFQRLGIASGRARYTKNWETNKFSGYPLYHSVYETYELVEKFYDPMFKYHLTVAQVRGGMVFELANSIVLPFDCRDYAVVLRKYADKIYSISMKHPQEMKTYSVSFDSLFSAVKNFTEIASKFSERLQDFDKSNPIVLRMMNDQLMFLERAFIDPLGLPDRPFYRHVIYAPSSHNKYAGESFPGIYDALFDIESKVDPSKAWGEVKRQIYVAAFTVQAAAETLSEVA

La(DO2Apic)-DUPA
Ki: 0.012 ± 0.003 µM

La(macropa)-DUPA
Ki: 0.017 ± 0.002 µM
